Laboratory results taken from ChEMBL document CHEMBL1142809, “SAR studies of 2-arylthiazolidine-4-carboxylic acid amides: a novel class of cytotoxic agents for prostate cancer” (Bioorg Med Chem Lett, 2005).

Experiments:
Format in all cases: functional, cell-based
PC-3 = assay: Antiproliferative activity against human prostate cancer PC-3 cell line by sulforhodamine B assay
[1] = Antiproliferative activity against human prostate cancer PPC-1 cell line by sulforhodamine B assay
DU-145 = assay: Antiproliferative activity against human prostate cancer DU-145 cell line by sulforhodamine B assay
[2] = Antiproliferative activity against human prostate cancer TSU-Pr1 cell line by sulforhodamine B assay
LNCaP = assay: Antiproliferative activity against human prostate cancer LNCaP cell line by sulforhodamine B assay

Structure (SMILES) | IC50 (PC-3) | IC50 [1] | IC50 (DU-145) | IC50 [2] | IC50 (LNCaP)
CCCCCCCCCCCCCCCCCCNC(=O)[C@@H]1CSC(c2ccc(OCC)cc2)N1 (stereo not given in full) | > 20 µM | 4.4 µM | > 20 µM | > 20 µM | 6.1 µM
CCCCCCCCCCCCCCCCCCNC(=O)[C@H]1NC(c2ccc(N(C)C)cc2)SC1(C)C (stereo not given in full) | > 20 µM | > 20 µM | > 20 µM | > 20 µM | > 20 µM
CCCCCCCCCCCCCCCCCCNC(=O)[C@@H]1CSC(c2cccc(O)c2)N1 (stereo not given in full) | 6.7 µM | 1.2 µM | 5.7 µM | 4 µM | 1.7 µM
CCCCCCCCCCCCCCCCCCNC(=O)[C@@H]1CSC(c2c(OC)cc(OC)cc2OC)N1 (stereo not given in full) | 10.6 µM | 0.83 µM | 7.3 µM | 6.1 µM | 2.4 µM
CCCCCCCCCCCCCCCCCCNC(=O)[C@@H]1CSC(c2cc(OC)c(OC)c(OC)c2)N1 (stereo not given in full) | 4 µM | 0.48 µM | 3.9 µM | 2.4 µM | 0.82 µM
CCCCCCCCCCCCCCCCCCNC(=O)[C@H]1NC(c2cc(OC)c(OC)c(OC)c2)SC1(C)C (stereo not given in full) | > 20 µM | 18.8 µM | > 20 µM | > 20 µM | > 20 µM
CCCCCCCCN(CCCCCCCC)C(=O)[C@@H]1CSC(c2cc(OC)c(OC)c(OC)c2)N1 (stereo not given in full) | > 20 µM | 14.1 µM | > 20 µM | > 20 µM | 8.7 µM
CCCCCCCCCCCCCCCCCCNC(=O)[C@@H]1CSC(c2ccc(N(C)C)cc2)N1 (stereo not given in full) | 6 µM | 1.1 µM | 5.3 µM | 3 µM | 1.6 µM
CCCCCCCCCCCCCCCCCCNC(=O)[C@@H]1CSC(c2ccc(O)cc2)N1 (stereo not given in full) | 5.3 µM | 0.82 µM | 3.1 µM | 3 µM | 1.6 µM
CCCCCCCCCCCCCCCCCCNC(=O)[C@@H]1CSC(c2ccc(OC)cc2)N1 (stereo not given in full) | 19 µM | 1.5 µM | 8.7 µM | 19.6 µM | 2.1 µM
